According to patent US7049289B1, “Labelled glutamine and lysine analogues” (Amersham PLC, priority 1998, dated 2006):
Like-named read-outs stand apart in the source and are kept apart here. code Z = not defined here

Assays:
[1] = target: T1, fibrin (in vitro human plasma clot) (Homo sapiens, UniProt P02671+P02675+P02679); assay: Incorporation into human plasma clots in vitro; assay type: biochemical; conditions: for % specific uptake: % retained (with thrombin) - % retained (no thrombin); for % retained (no thrombin): control without thrombin and calcium chloride (non-specific binding); for % retained (with thrombin): human plasma clot, 60 minutes, ca. 20° C.
T1 construct: about 400 μl of human plasma containing the radiolabelled substrate; from tissue; host or cells: human plasma, clotted in vitro with added thrombin and calcium chloride
T1 sequence (P02671 20-644 isoform P02671-2 limits assumed): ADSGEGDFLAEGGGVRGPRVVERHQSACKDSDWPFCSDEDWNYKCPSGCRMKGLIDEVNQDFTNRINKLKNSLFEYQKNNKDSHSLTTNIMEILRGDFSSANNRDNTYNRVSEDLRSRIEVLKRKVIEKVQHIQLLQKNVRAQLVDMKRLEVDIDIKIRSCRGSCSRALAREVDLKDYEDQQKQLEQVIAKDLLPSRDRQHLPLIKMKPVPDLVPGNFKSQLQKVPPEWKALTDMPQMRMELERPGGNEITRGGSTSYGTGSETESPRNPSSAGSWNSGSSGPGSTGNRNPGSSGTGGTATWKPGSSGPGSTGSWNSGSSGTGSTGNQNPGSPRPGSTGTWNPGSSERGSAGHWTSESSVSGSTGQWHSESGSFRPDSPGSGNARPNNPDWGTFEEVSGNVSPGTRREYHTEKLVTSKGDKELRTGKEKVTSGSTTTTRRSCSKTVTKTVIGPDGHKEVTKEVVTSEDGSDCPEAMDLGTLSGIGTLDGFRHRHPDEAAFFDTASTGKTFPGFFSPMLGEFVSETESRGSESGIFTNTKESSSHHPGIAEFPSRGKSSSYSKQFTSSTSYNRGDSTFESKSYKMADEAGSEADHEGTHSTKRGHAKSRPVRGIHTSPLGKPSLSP
T1 sequence (P02675 45-491 limits assumed): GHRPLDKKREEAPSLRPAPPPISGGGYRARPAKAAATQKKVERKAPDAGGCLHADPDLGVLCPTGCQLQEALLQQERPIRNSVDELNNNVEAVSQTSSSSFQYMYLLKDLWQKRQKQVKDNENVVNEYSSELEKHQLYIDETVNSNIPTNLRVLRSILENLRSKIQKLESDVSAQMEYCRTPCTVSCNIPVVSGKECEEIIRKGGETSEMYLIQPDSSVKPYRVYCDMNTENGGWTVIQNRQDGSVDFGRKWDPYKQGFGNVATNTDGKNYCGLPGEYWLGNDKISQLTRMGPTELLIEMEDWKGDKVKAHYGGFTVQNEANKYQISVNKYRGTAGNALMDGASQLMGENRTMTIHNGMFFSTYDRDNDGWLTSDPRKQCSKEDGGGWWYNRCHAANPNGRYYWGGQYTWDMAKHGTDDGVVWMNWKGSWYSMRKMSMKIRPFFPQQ
T1 sequence (P02679 27-437 isoform P02679-2 limits assumed): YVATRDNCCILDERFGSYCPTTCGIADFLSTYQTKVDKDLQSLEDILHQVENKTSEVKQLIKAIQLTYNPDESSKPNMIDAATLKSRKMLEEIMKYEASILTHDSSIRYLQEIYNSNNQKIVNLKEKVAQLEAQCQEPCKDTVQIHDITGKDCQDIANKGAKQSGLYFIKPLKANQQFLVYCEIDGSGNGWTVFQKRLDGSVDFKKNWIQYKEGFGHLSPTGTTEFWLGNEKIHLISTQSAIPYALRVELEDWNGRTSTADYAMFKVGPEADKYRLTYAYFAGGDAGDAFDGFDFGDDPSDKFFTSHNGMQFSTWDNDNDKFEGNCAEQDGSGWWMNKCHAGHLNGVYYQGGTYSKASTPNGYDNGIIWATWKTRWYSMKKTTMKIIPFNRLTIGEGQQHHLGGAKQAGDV
Method in brief: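 Fibrin incorporation is expressed as the fraction of total radioactivity retained with filtered clots, corrected for non-specific binding in controls lacking thrombin and calcium chloride. Clotting was induced by thrombin in Ca2+-containing Tris-buffered saline (pH 7.5) with human plasma carrying about 10 kBq/ml tracer, for 60 min at ambient temperature before EDTA quench.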

[2] = Incorporation into clots induced in a rat model (rat inferior vena cava model); assay type: in vivo, rat (Male Wistar); conditions: for % id/g (clot) / Rel. Conc. (cpm/g of clot by dose/g animal): sacrificed after 60 min
Method in brief: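 Male Wistar rats (250–350 g) under 15% urethane anaesthesia, with the vena cava isolated by laparotomy. Compounds given 5 min (fresh clot) or 60 min (aged clot) after clot induction; clot, blood, lung and heart removed 60 min later, weighed and counted. Uptake expressed as cpm/g clot per dose/g animal and as clot-to-background tissue ratio.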

[3] = human, plasma, 2 h
Protocol: (§1) To a portion of compound (50 μl, 10 MBq/ml) was added an equal volume of plasma (rat or human) or saline. The mixtures were incubated at 37° C. and the stability measured by HPLC (system C) at 0, 30 and 120 minutes. The saline dilution acted as a control.

[4] = rat, plasma, 2 h
Protocol: as §1

[5] = Fresh Clots: injected 5 min post-induction
[6] = Aged Clots: injected 60 min post-induction

Row | Substance | % specific uptake [1] [%] | % retained (no thrombin) [1] [%] | % retained (with thrombin) [1] [%] | in vitro clot uptake (in words) ([1]; in vitro clot) | Clot/blood ([2]; Fresh Clots) | Clot/heart ([2]; Fresh Clots) | Clot/liver ([2]; Fresh Clots) | Clot/lung ([2]; Fresh Clots) | % id/g (clot) [2, 5] [% id/g] | Rel. Conc. (cpm/g of clot by dose/g animal) [2, 5] | % intact at 120 mins [3] [%] | % intact at 120 mins [4] [%] | Clot/blood ([2]; Aged Clots) | Clot/heart ([2]; Aged Clots) | Clot/liver ([2]; Aged Clots) | Clot/lung ([2]; Aged Clots) | % id/g (clot) [2, 6] [% id/g] | Rel. Conc. (cpm/g of clot by dose/g animal) [2, 6] | RC (in vivo clot uptake) [2]
1 | Ac-NQEQVSPYTLLKG-Hynic (also: 99mTc complex) [^99mTc-Cmpd 4] | 21.0 | 0.1 | 22.0 |  | 6 | 15 | 20 | 8 | 2.0 ± 0.6 | 6.5 ± 2.0 | >90 | >90 | 8 | 19 | 19 | 10 | 1.2 ± 1.1 | 4.1 ± 4.0 | 
2 | Z-NQEQVSPYTLLKG-Pn216 ({code Z}-NQEQVSPYTLLKG-Pn216; reading uncertain; also: 99mTc complex, printed as Z-NQEQVSPYTLLKG-Pn216) [^99mTc-Cmpd 8] | 24.5 | 1.4 | 25.9 |  | 14 | 41 | 21 | 18 | 6.7 ± 1.7 | 21.0 ± 6.8 |  |  | 10 | 24 | 16 | 9 | 5.3 ± 1.3 | 16.4 ± 4.3 | 
3 | Ac-NQQQVSPYTLLKG-Pn216 (also: 99mTc complex) [^99mTc-Cmpd 15] | 55.2 | 0.4 | 55.6 |  | 4 | 12 | 11 | 6 | 3.6 ± 1.0 | 8.3 ± 2.2 |  |  | 3 | 1 |  | 0.6 | 3.4 ± 0.6 | 7.6 ± 1.6 | 
4 | Ac-NQEAVSPYTLLKG-Pn216 (also: 99mTc complex) [^99mTc-Cmpd 13] | 56.8 | 0.2 | 57.0 |  | 7 | 18 | 18 | 8 | 3.4 ± 0.7 | 7.9 ± 1.6 |  |  | 6 | 29 | 19 | 9 | 4.5 ± 1.5 | 10.4 ± 3.0 | 
5 | Ac-NQEAVSPYTLLKG-Pn44 (also: 99mTc complex) [^99mTc-Cmpd 12] | 34.5 | 0.3 | 34.8 |  | 20 | 31 | 8 | 17 | 7.3 ± 4.1 | 19.8 ± 11.0 | >90 | >90 | 19 | 75 | 7 | 15 | 4.1 ± 1.2 | 11.2 ± 3.4 | 

Further lines, with some results ahead:

Row | % specific uptake [1] [%] | % retained (no thrombin) [1] [%] | % retained (with thrombin) [1] [%] | in vitro clot uptake (in words) ([1]; in vitro clot) | Substance | Clot/blood ([2]; Fresh Clots) | Clot/heart ([2]; Fresh Clots) | Clot/liver ([2]; Fresh Clots) | Clot/lung ([2]; Fresh Clots) | % id/g (clot) [2, 5] [% id/g] | Rel. Conc. (cpm/g of clot by dose/g animal) [2, 5] | % intact at 120 mins [3] [%] | % intact at 120 mins [4] [%] | Clot/blood ([2]; Aged Clots) | Clot/heart ([2]; Aged Clots) | Clot/liver ([2]; Aged Clots) | Clot/lung ([2]; Aged Clots) | % id/g (clot) [2, 6] [% id/g] | Rel. Conc. (cpm/g of clot by dose/g animal) [2, 6] | RC (in vivo clot uptake) [2]
6 | 12.4 | 0.1 | 12.5 | significant reduction in uptake | Ac-NQG-Pn44 [^99mTc-Cmpd 16] | 3 | 8 | 0.8 | 3 | 0.3 ± 0.1 | 1.0 ± 0.2 | >90 | >90 |  |  |  |  |  |  | 
7 | 40.6 | 0.7 | 41.3 |  | Ac-NQEQVG-Pn44 [^99mTc-Cmpd 17] | 7 | 18 | 5 | 12 | 1.2 ± 0.7 | 3.7 ± 2.3 | >90 | >90 | 3 | 7 | 3 | 5 | 0.8 ± 0.1 | 2.7 ± 0.6 | 
8 | 60.1 | 0.5 | 60.6 |  | Ac-NQEQVSP(pBr-F)TLLKG-Pn216 [^99mTc-Cmpd 21] | 11 | 28 | 13 | 16 | 2.3 ± 1.3 | 7.4 ± 4.0 |  |  | 31 | 32 | 31 | 13 | 2.7 ± 2.3 | 8.5 ± 6.8 | 
9 | 63.7 | 0.1 | 63.8 |  | Ac-NQEQVSP(I2-Y)TLLKG-Pn216 [^99mTc-Cmpd 23] | 6 | 17 | 21 | 6 | 7.6 ± 1.8 | 18.2 ± 4.1 |  |  | 13 | 1 | 1 | 1 | 7.5 ± 2.5 | 17.6 ± 4.6 | 
10 | 12.6 | 2.0 | 14.6 |  | NQEQVSPYTLLK [^123I-Cmpd 1, reference compound] | 1 |  |  |  | 0.5 ± 0.1 | 1.6 ± 0.4 |  |  |  |  |  |  |  |  | 1.5
11 | 48.0 | 0.2 | 48.2 |  | Ac-NQEQVSPLTLLKG-Pn216 (also: 99mTc complex) [^99mTc-Cmpd 19] | 3 | 29 | 17 | 7 | 2.5 ± 0.3 | 7.1 ± 1.2 |  |  | 14 | 13 | 6 | 5 | 3.2 ± 2.3 | 9.1 ± 7.1 | 
